ChEMBL document CHEMBL5614405 (J Med Chem, 2024)
pIC50: −log10 of the molar value. Active and inactive are the calls of the source. The calls are words filed in the database; no cut-off is given here.

Legend:
[1] = Toxicity in New Zealand rabbit assessed as appearance of conjunctival congestion by measuring ocular irritation score at 0.028 % TOP administration on left eye measured after 3 days by draize eye irritation test; format: tissue-based, Oryctolagus cuniculus; details: in vivo, topical_or_ocular, 72 h, time 3 day
[2] = Toxicity in New Zealand rabbit assessed as appearance of conjunctival congestion by measuring ocular irritation score at 0.028 % TOP administration on left eye measured after 1 day by draize eye irritation test; format: tissue-based, Oryctolagus cuniculus; details: in vivo, topical_or_ocular, 24 h
[3] = Toxicity in New Zealand rabbit assessed as appearance of conjunctival congestion by measuring ocular irritation score at 0.028 % TOP administration on left eye measured after 4 days by draize eye irritation test; format: tissue-based, Oryctolagus cuniculus; details: in vivo, topical_or_ocular, 96 h, time 4 day
Mus musculus [4] = assay: Anti-glaucoma activity in magnetic microbead induced occlusion C57BL/6J mouse model assessed as reduction in intraocular pressure at 441.27 uM,TOP administration on right eye measured after 1 hr by tonometric analysis; format: functional, organism-based
[5] = Toxicity in New Zealand rabbit assessed as appearance of conjunctival congestion by measuring ocular irritation score at 0.028 % TOP administration on left eye measured after 5 days by draize eye irritation test; format: tissue-based, Oryctolagus cuniculus; details: in vivo, topical_or_ocular, 120 h, time 5 day
[6] = Toxicity in New Zealand rabbit assessed as appearance of conjunctival congestion by measuring ocular irritation score at 0.028 % TOP administration on left eye measured after 6 days by draize eye irritation test; format: tissue-based, Oryctolagus cuniculus; details: in vivo, topical_or_ocular, 144 h, time 6 day
Mus musculus [7] = assay: Anti-glaucoma activity in magnetic microbead induced occlusion C57BL/6J mouse model assessed as increase in retinal ganglion cell population at 441.27 uM,TOP administrated on right eye thrice a day for 21 days by immunofluorescence based confocal microscopic analysis; format: functional, organism-based; details: time 21.0 day
[8] = Toxicity in New Zealand rabbit assessed as appearance of conjunctival congestion by measuring incidence of ocular irritation at 0.028 % TOP administration on left eye measured for 5 days by draize eye irritation test; format: tissue-based, Oryctolagus cuniculus; details: in vivo, topical_or_ocular, 120 h, time 5 day
[9] = Toxicity in New Zealand rabbit assessed as appearance of conjunctival congestion by measuring ocular irritation score at 0.028 % TOP administration on left eye measured after 2 days by draize eye irritation test; format: tissue-based, Oryctolagus cuniculus; details: in vivo, topical_or_ocular, 48 h, time 2 day
[10] = Toxicity in New Zealand rabbit assessed as appearance of conjunctival congestion by measuring ocular irritation score at 0.028 % TOP administration on left eye measured after 7 days by draize eye irritation test; format: tissue-based, Oryctolagus cuniculus; details: in vivo, topical_or_ocular, 168 h, time 7 day
[11] = Toxicity in chicken embryo chorioallantoic membrane assessed as irritation score at 1.55 mM measured after 5 mins in presence of methyl 3-(nitrooxy)benzoate by microscopic analysis; format: tissue-based, Gallus gallus; details: in vivo, 1550 µM
Oryctolagus cuniculus [12] = assay: Anti-glaucoma activity in methylcellulose-induced acute intraocular hypertensive New Zealand rabbit model assessed as reduction in intraocular pressure at 1.55 mM,TOP administration on conjunctival sac measured upto 24 hrs relative to Netarsudil; format: functional, organism-based
[13] = target: Rho-associated protein kinase 2 (Homo sapiens, UniProt O75116); assay: Inhibition of ROCK2 (unknown origin) incubated for 60 mins in presence of ATP by mobility shift assay
[14] = Toxicity in chicken embryo chorioallantoic membrane assessed as irritation score at 1.55 mM measured after 5 mins by microscopic analysis relative to Netarsudil; format: tissue-based, Gallus gallus; details: in vivo, 1550 µM
[15] = target: Rho-associated protein kinase 1 (Homo sapiens, UniProt Q13464); assay: Inhibition of ROCK1 (unknown origin) incubated for 10 mins in presence of ATP by mobility shift assay
Oryctolagus cuniculus [16] = assay: Anti-glaucoma activity in methylcellulose-induced acute intraocular hypertensive New Zealand rabbit model assessed as reduction in intraocular pressure at 1.55 mM,TOP administration on conjunctival sac measured for 1 to 4 hrs; format: functional, organism-based; details: time 1-4 hrs
Oryctolagus cuniculus [17] = assay: Anti-glaucoma activity in methylcellulose-induced acute intraocular hypertensive New Zealand rabbit model assessed as reduction in intraocular pressure at 1.55 mM,TOP administration on conjunctival sac measured for 5 to 7 hrs; format: functional, organism-based; details: time 5-7 hrs

Rho-associated protein kinase 2, sequence (O75116 whole entry): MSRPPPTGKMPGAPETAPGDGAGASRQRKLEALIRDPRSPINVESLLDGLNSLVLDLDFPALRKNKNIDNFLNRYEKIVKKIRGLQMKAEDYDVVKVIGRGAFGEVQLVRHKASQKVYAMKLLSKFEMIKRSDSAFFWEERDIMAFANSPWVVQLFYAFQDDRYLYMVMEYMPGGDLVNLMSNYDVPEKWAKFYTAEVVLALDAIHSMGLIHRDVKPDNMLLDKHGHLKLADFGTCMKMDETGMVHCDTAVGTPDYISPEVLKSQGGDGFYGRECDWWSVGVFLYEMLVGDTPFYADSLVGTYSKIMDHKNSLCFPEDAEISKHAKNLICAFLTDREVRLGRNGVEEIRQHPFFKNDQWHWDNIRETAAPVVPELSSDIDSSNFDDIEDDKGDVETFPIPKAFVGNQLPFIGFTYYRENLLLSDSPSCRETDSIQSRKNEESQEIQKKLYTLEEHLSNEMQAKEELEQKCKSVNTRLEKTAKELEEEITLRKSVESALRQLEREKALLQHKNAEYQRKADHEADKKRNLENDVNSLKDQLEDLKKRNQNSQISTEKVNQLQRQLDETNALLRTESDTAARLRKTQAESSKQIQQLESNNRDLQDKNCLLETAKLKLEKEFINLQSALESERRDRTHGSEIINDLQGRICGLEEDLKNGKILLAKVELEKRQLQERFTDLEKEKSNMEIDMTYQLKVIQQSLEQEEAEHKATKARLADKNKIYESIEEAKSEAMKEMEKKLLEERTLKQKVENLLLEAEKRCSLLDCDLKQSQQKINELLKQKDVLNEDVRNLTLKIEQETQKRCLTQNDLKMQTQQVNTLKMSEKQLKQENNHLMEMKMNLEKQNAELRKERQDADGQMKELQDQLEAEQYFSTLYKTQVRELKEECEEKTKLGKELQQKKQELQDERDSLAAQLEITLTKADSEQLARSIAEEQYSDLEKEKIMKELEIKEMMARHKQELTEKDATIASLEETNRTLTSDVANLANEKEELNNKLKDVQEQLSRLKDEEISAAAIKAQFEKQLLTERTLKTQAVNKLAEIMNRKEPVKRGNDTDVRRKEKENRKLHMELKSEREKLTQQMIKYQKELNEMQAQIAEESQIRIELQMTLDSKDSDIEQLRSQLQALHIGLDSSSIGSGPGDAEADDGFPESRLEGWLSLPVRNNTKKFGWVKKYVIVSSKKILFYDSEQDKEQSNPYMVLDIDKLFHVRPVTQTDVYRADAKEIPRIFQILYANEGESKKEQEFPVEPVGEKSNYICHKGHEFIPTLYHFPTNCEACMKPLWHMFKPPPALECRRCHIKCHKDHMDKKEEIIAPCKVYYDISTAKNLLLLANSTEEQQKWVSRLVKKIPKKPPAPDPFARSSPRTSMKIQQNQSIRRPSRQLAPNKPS
Rho-associated protein kinase 1, sequence (Q13464 whole entry): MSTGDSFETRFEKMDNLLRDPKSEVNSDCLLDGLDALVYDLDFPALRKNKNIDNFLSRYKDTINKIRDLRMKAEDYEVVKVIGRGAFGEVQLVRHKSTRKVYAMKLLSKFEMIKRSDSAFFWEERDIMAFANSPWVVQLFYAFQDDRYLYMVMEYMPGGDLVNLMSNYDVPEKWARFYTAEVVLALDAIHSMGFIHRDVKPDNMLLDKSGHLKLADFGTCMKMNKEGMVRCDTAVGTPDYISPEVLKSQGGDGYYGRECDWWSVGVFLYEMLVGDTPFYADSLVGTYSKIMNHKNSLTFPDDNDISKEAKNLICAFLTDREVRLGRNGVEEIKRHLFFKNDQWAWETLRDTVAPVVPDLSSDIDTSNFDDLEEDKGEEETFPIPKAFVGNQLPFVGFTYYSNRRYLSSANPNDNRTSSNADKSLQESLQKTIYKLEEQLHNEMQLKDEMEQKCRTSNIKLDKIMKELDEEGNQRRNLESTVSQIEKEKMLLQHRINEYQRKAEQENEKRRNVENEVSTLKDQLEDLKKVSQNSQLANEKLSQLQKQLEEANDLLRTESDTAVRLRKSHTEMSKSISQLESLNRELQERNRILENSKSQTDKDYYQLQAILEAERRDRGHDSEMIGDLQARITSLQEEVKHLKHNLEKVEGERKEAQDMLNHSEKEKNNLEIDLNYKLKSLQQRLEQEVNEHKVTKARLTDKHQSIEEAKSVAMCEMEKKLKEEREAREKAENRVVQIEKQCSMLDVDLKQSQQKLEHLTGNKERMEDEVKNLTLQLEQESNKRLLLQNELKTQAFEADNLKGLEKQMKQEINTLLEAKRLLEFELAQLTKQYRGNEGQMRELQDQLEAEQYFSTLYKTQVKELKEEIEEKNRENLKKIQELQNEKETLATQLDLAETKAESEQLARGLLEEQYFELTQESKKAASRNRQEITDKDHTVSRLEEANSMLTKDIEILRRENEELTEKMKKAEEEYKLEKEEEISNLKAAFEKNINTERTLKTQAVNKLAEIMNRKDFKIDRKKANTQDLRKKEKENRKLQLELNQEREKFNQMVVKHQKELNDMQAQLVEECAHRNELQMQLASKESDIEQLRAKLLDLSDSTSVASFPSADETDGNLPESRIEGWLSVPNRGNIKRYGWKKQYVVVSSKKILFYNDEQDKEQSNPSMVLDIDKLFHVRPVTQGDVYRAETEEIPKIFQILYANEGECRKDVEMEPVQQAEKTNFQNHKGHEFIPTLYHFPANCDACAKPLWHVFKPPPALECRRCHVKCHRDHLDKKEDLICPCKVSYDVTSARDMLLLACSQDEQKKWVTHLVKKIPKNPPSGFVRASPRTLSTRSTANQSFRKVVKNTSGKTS

**Q.** For Cc1ccc(C(=O)OCc2ccc([C@@H](CN)C(=O)Nc3ccc4cnccc4c3)cc2)c(C)c1, which Activity [1] is on record?
**A.** The Activity was 3.

**Q.** And the Activity [2]?
**A.** The Activity was 3.33.

**Q.** And the Activity [3]?
**A.** The Activity was 3.67.

**Q.** What about the Activity (Mus musculus [4]) of the same molecule?
**A.** Its Activity is “Active”.

**Q.** What about the Activity [5] of the same molecule?
**A.** Its Activity is 2.33.

**Q.** What about the Activity [6] of the same molecule?
**A.** The Activity was 1.33.

**Q.** And the Activity (Mus musculus [7])?
**A.** The Activity was “Active”.

**Q.** And the Activity [8]?
**A.** Its Activity is 100%.

**Q.** And the Activity [9]?
**A.** The Activity was 3.67.

**Q.** What about the Activity [10] of the same molecule?
**A.** The Activity was 1.

**Q.** What about the Activity [11] of the same molecule?
**A.** Its Activity is “Non-Toxic”.

**Q.** Which Activity (Oryctolagus cuniculus [12]) does the source give for CS(=O)(=O)O.CS(=O)(=O)O.NCC(C(=O)Nc1ccc2cnccc2c1)c1ccc(COC(=O)CCCO[N+](=O)[O-])cc1 (centres undefined) here?
**A.** Its Activity is “Active”.

**Q.** And the pIC50 [13]?
**A.** The pIC50 was 8.60.

**Q.** And the Activity [14]?
**A.** The Activity was “Toxic”.

**Q.** What about the pIC50 [15] of the same molecule?
**A.** The pIC50 was 8.31.

**Q.** With NCC(C(=O)Nc1ccc2cnccc2c1)c1ccc(COC(=O)CCCCCO[N+](=O)[O-])cc1 (centres undefined) as the molecule, how does the pIC50 [13] read?
**A.** Its pIC50 is 8.28.

**Q.** What about the pIC50 [15] of the same molecule?
**A.** The pIC50 was 7.65.

**Q.** For CS(=O)(=O)O.CS(=O)(=O)O.NCC(C(=O)Nc1ccc2cnccc2c1)c1ccc(COC(=O)c2cccc(CO[N+](=O)[O-])c2)cc1 (centres undefined), which Activity (Oryctolagus cuniculus [16]) is on record?
**A.** The Activity was “Active”.

**Q.** And the Activity (Oryctolagus cuniculus [17])?
**A.** Its Activity is “Active”.

**Q.** And the pIC50 [13]?
**A.** Its pIC50 is 8.83.

**Q.** And the Activity [14]?
**A.** Its Activity is “Toxic”.

**Q.** And the pIC50 [15]?
**A.** Its pIC50 is 8.60.

**Q.** With NCC(C(=O)Nc1ccc2cnccc2c1)c1ccc(COC(=O)CCCCO[N+](=O)[O-])cc1 (centres undefined) as the molecule, how does the pIC50 [13] read?
**A.** Its pIC50 is 8.29.

**Q.** What about the pIC50 [15] of the same molecule?
**A.** The pIC50 was 7.54.
